The subject of data set [1] is MCF-7 breast cancer cells. As to the kind of experiment: cells. The format is cell-based. As to conditions: for IC50: Homo sapiens, MCF7, 48 h, read-out: MTT IC50 MCF-7. How it is done:
(§1) The cell lines were obtained from American Type Culture Collection (ATCC, Manassas, VA, USA) and were cultured at 37 °C in the presence of 5% CO2 in the atmosphere. […] The cell’s morphology was examined under a Nikon Eclipse Ti inverted phase contrast microscope (Nikon, Tokyo, Japan). The authenticity of tested cell lines was verified by short tandem repeat (STR) genotyping in the Department of Forensic Medicine (Medical University of Lublin, Lublin, Poland).
(§2) Cell viability based on metabolic activity was evaluated with the MTT colorimetric test based on the ability of viable cells to cause the transformation of tetrazolium salts MTT (3-[4,5-dimethylthiazol-2-yl]-2,5)diphenyltetrazolium bromide) into purple formazan, by cellular dehydrogenases. The cells were seeded into 96-well plates at a concentration of 2 × 10^5 cells/mL. […] Doxorubicin was used for comparison as the standard chemotherapeutic agent used in breast cancer treatment. After 48 h of incubation cell cultures were supplemented with 20 µL of 5 mg/mL MTT (Thermofisher, Waltham, MA, USA) stock in PBS (Corning, NY, USA), and the incubation was continued for 4 h at 37 °C. Next, the medium with MTT was removed, and obtained crystals were dissolved in 200 µL of DMSO (dimethyl sulfoxide, Avantor, Gliwice, Poland). The solution absorbency was measured at 570 nm, using a PowerWave™ xs microplate spectrophotometer (BioTek Instruments, Winooski, VT, USA). The experiment was performed three times with three replicates for each concentration of tested compounds.

In data set [2] the test system is MDA-MB-231 breast cancer cells. As to the kind of experiment: cells. As to conditions: Homo sapiens, MDA-MB-231, 48 h, read-out: MTT IC50 MDA-MB-231. Format: cell-based. The procedure: as §1, §2
In data set [3] the target is T1, hH3R (Homo sapiens, UniProt Q9Y5N1).
T1 construct: expressed in transfected cells
T1 sequence (Q9Y5N1 whole entry): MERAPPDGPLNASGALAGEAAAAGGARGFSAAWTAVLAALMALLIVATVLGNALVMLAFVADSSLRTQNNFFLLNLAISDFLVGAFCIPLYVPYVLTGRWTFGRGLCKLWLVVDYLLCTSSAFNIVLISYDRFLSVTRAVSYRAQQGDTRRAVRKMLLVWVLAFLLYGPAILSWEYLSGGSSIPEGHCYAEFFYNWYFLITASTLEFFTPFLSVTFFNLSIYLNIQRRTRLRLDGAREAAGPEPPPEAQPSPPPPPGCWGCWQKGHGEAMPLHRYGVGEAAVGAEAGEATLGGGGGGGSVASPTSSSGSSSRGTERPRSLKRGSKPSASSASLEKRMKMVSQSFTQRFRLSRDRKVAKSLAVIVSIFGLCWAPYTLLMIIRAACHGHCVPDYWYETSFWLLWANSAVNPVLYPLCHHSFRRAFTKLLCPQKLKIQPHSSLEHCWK
As to the kind of experiment: biochemical. The format is binding. How it is done:
All newly synthesized compounds were evaluated as H3R antagonists/inverse agonists on the guinea pig ileum (gpH3R), stimulated electrically to induce contractions. The distinct affinity profile and species-dependent pharmacology of H3R ligands are known. […] Therefore, to compare species differences, all newly synthesized compounds were subjected to radioligand displacement assay in membrane fractions of HEK-293 cells stably expressing hH3R. […] Ex vivo assay for histamine H3R and H1R antagonists were measured on the isolated guinea pig ileum stimulated to contractions by histamine. The pA2-values were calculated according to Arunlakshana and Schild. The radioligand-displacement binding assay was performed in membrane fractions of HEK-293 cells stably expressing hH3R. Cell cultivation and membrane preparation was performed according to Kottke et al.. The Ki values were calculated from the IC50 values using the Cheng–Prusoff equation [37]. The statistical calculations were performed on –log(Ki). […] The inhibitory activities of novel ADS compounds were assessed in spectrophotometric Ellman’s assay using AChE from electric eel (eeAChE) and BuChE from horse serum (eqBuChE).
3.3 hH3R radioligand displacement binding assay.
The radioligand displacement binding assay was performed in membrane fractions of HEK-293 cells stably expressing hH3R. Cell cultivation and membrane preparation was performed according to Kottke et al. [T. Kottke, […]
radioligand displacement assay, radioactively labeled [3H]Nα-methylhistamine was used at a final concentration […]
The total assay volume was set to 200 µL. The compounds were tested in several appropriate concentrations between 100 µM and 0.1 nM. Pipetting was partly done by Freedom Evo® (Tecan).
The membrane fraction (20 […]
µg/well), test compounds and radiolabeled ligand were incubated for 90 minutes at 25 °C while shaking. The bound radioligand was separated from the free radioligand by filtration through GF/B filters pre-treated with 0.3 % (m/v) polyethyleneimine using a cell harvester. Radioactivity was determined by liquid scintillation counting using a MicroBeta® Trilux (Perkin Elmer). The data was obtained in duplicates in at least three independent experiments. Non-specific binding was subtracted from the raw data to calculate specific-binding values. The evaluation was performed with GraphPad Prism 6.1 (San Diego, CA, USA) using non-linear regression (one-site competition with a logarithmic scale). The Ki values were calculated from the IC50 values using the Cheng-Prusoff […]
equation. [C. […] The statistical calculations […]
were performed on –log(Ki).

The target of data set [4] is eqBuChE (Equus caballus, UniProt P81908). As to the kind of experiment: biochemical. As to conditions: for inhibition at 10 µM: read-out: eqBuChE % inh. (10 µM) ± SD; for IC50: read-out: eqBuChE IC50 ± sem.
Sequence of eqBuChE (P81908 whole entry): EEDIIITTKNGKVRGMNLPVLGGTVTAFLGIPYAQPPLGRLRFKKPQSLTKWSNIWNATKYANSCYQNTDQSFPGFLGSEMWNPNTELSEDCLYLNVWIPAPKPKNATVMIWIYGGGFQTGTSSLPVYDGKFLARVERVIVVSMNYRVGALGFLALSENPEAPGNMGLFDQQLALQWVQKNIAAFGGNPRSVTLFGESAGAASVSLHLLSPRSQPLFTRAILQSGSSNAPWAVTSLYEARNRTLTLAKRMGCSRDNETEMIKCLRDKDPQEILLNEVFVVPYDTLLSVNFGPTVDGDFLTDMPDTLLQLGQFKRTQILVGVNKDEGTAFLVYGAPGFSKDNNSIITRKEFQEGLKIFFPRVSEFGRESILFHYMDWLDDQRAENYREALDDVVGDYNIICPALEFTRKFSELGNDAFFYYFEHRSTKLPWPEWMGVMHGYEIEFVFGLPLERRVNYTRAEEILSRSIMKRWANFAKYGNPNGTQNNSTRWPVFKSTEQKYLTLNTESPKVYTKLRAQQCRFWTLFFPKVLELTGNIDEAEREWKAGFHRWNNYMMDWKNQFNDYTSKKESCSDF
Data set [5] has as its system MDA-MB-231 breast cancer cells. As to the kind of experiment: Apoptosis/necrosis detection (Annexin V-FITC/PI, image cytometry), MDA-MB-231. The format is cell-based, human. The settings on record: 48 h. How it is done: The MTT test results prompted further study. Staining with propidium iodide and Annexin V-FITC was performed to distinguish apoptotic from necrotic cell death.
Apoptosis was analyzed using the NucleoCounter® NC-3000™ (Chemometec Inc., Lillerød, Denmark) according to the manufacturer’s protocol using Annexin V from Biotium (Fremont, CA, USA). MCF-7 and MDA-MB-231 cells were seeded into 6-well plates (2 × 10^5 cells/mL) and cultured until 70–80% confluence was reached. […] Scatter plots were used to determine the proportion of healthy cells (Annexin V-negative/PI-negative cells), early apoptotic cells (Annexin V-positive/PI-negative cells), late apoptotic cells (Annexin V-positive/PI-positive cells), and necrotic cells (Annexin V-negative/PI-positive cells). Data were derived from three independent experiments with three replicates.

Each structure is given as a SMILES string. Several values for one entry are separate records, joined by “and”; a condition that tells them apart may be missing. Equal values may be shown once. Read-outs that look alike come from different tables or passages of the source. A value given as a limit tells only on which side of the number the result lay.

Broadly, the IC50 is the concentration at which inhibition is half-maximal. A word on the Ki: it is the dissociation constant of the complex between target and ligand, obtained from inhibition or displacement. Regarding `N=C(N)N(CCCCN1CCN(CCCCCCCOc2ccccc2)CC1)Cc1ccccc1` [ADS1017], the IC50 in data set [1] came out at 24.7 µM; in data set [2], 19.9 µM; in data set [4], 5.1 ± 0.1 µM. In addition, the Ki in data set [3] (mean ± sem, at least three independent experiments, read-out: hH3R -log(Ki) ± sem (converted)) was 0.513 µM. In data set [4], the inhibition at 10 µM stood at 70.8 ± 0.6%. The “early apoptotic cells (Q1lr)” value in data set [5] (MDA-MB-231, IC50 concentration) is given as 22%. In addition, the “late apoptotic cells (Q1ur)” value in data set [5] (MDA-MB-231, IC50 concentration) is given as 39%.

In the case of `Cl.Cl.N=C(NCCCCc1ccc(Cl)cc1)NCCCCN1CCCCC1` [ADS10310], the IC50 in data set [1] turned out to be 82.9 µM; in data set [2] it was 115 µM; in data set [4], 1.7 ± 0.1 µM. Besides, the “Cell viability (%) ± SD, MCF-7” value in data set [1] (MTT, 48 h, concentrations among 10-125 μM, column of each value cannot be told) is 79.57±1.33% and 60.51±1.86% and 57.12±1.54% and 44.21±3.24% and 39.79±2.76%. Besides, the Ki in data set [3] (hH3R Ki) is < 0.2 µM and 0.127 µM. In addition, the inhibition at 10 µM in data set [4] is 83.9 ± 0.1%. The “mode of cell death (in words)” value in data set [5] (both breast cancer lines, IC50 concentration) is recorded as “mainly late apoptotic cells”.

The values are drawn from PMC10223552 (Pharmaceuticals, 2023).
